One experiment deals with RXF-631 renal. Kind of experiment: NCI tumour cell line growth inhibition, 48 h.
The subject of the next experiment is P388/ADR leukemia. Kind of experiment: NCI tumour cell line growth inhibition, 48 h.

The structures appear in SMILES notation.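 1) Cells in 96-well plates. 2) Compound, 48 h, 5 concentrations. 3) Linear interpolation between surrounding doses. 4) Unreached endpoint = highest concentration. The concentration for full growth arrest is given as TGI.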

As for `CSc1nc(SC)c2c(C#N)[nH]nc2n1`, the TGI in the experiment on RXF-631 renal is > 100 µM.

With `Cc1c2cc[n+](C)c(C)c2cc2c1[nH]c1ccccc12`, the TGI in the experiment on P388/ADR leukemia was > 100 µM.

On to `CCCCCCCCCCCC[S+](C)C`, for which, in the experiment with P388/ADR leukemia, the TGI is > 100 µM.
